The text below walks through data of ChEMBL document CHEMBL4219271, “Synthesis and anti-proliferative activity of allogibberic acid derivatives containing 1,2,3-triazole pharmacophore” (Bioorg Med Chem Lett, 2018).

As usually defined, the pIC50 is −log10 of the IC50, conventionally taken in molar units.

pIC50: −log10 of the molar value.

What all share (format): functional, cell-based
The subject of one experiment is HL-60. Description: Cytotoxicity against human HL60 cells assessed as decrease in cell viability after 4 days by MTT assay. Particulars: HL-60, 96 h.
For the next experiment, the system named is SMMC-7721. The experiment can be described thus: Cytotoxicity against human SMMC7721 cells assessed as decrease in cell viability after 4 days by MTT assay. The settings on record: SMMC-7721, 96 h. (In general: Tetrazolium dyes change colour on reduction, which living cells bring about.)
The test system of a further experiment is A549. The experiment can be described thus: Cytotoxicity against human A549 cells assessed as decrease in cell viability after 4 days by MTT assay. Particulars: A549, 96 h.
A further experiment relates to MCF7. Description: Cytotoxicity against human MCF7 cells assessed as decrease in cell viability after 4 days by MTT assay. The settings on record: MCF7, 96 h.
The test system of the next experiment is SW480. Description: Cytotoxicity against human SW480 cells assessed as decrease in cell viability after 4 days by MTT assay. The settings on record: SW480, 96 h.

Take `C=C1C[C@]23C[C@@]1(O)CC[C@H]2c1ccc(OS(=O)(=O)c2ccc(C)cc2)c(C)c1[C@@H]3Cn1cc(-c2ccccn2)nn1`: the pIC50 with HL-60, in the experiment on SMMC-7721, in the experiment on A549, in the experiment with MCF7 and with SW480 was less than 4.70 throughout.

On to `C=C1C[C@]23C[C@@]1(O)CC[C@H]2c1cc(Br)c(O)c(C)c1[C@@H]3Cn1cc(-c2ccc(C(F)(F)F)cc2)nn1`, for which the pIC50 was 5.13 in the experiment on HL-60; 4.89 in the experiment with SMMC-7721; 5.03 with A549; 5.09 with MCF7; 4.82 in the experiment on SW480.

Consider `C=C1C[C@]23C[C@@]1(O)CC[C@@H]2c1cccc(C)c1[C@@H]3Cn1cc(-c2ccc(C(F)(F)F)cc2)nn1`, for which the pIC50 in the experiment with HL-60, in the experiment on SMMC-7721, with A549, in the experiment with MCF7 and with SW480 was less than 4.70 each time.

Take `C=C1C[C@]23C[C@@]1(O)CC[C@H]2c1ccc(OS(=O)(=O)c2ccc(C)cc2)c(C)c1[C@@H]3Cn1cc(-c2ccc(Cl)cc2)nn1`: the pIC50 in the experiment on HL-60, in the experiment with SMMC-7721, with A549, with MCF7 and in the experiment on SW480 was less than 4.70 each time.

`COc1ccc(-c2cn(C[C@H]3c4c(ccc(OS(=O)(=O)c5ccc(C)cc5)c4C)[C@@H]4CC[C@@]5(C)C[C@]43CC5=O)nn2)cc1`: the pIC50 in the experiment on HL-60, in the experiment with SMMC-7721, with A549, in the experiment on MCF7 and in the experiment on SW480 was less than 4.70 in each case.

With `C=C1C[C@]23C[C@@]1(O)CC[C@@H]2c1cccc(C)c1[C@@H]3Cn1cc(-c2ccc(C)cc2)nn1`, the pIC50 with HL-60, with SMMC-7721, with A549, in the experiment on MCF7 and in the experiment with SW480 was less than 4.70 each time.

`C=C1C[C@]23C[C@@]1(O)CC[C@H]2c1ccc(OS(=O)(=O)c2ccc(C)cc2)c(C)c1[C@@H]3Cn1cc(-c2ccc(C)cc2)nn1`: the pIC50 with HL-60, in the experiment with SMMC-7721, with A549, in the experiment with MCF7 and in the experiment with SW480 was less than 4.70 in each case.

For the molecule `C=C1C[C@]23C[C@@]1(O)CC[C@H]2c1ccc(O)c(C)c1[C@@H]3Cn1cc(-c2ccc(OC)cc2)nn1`, the pIC50 with HL-60, with SMMC-7721, with A549, with MCF7 and in the experiment with SW480 was less than 4.70 throughout.

For the molecule `Cc1ccc(-c2cn(C[C@H]3c4c(ccc(O)c4C)[C@@H]4CC[C@@]5(C)C[C@]43CC5=O)nn2)cc1`, the pIC50 in the experiment with HL-60, in the experiment with SMMC-7721, with A549, in the experiment with MCF7 and in the experiment on SW480 was less than 4.70 throughout.

Consider `C=C1C[C@]23C[C@@]1(O)CC[C@H]2c1ccc(OS(=O)(=O)c2ccc(C)cc2)c(C)c1[C@@H]3Cn1cc(-c2ccc(Br)cc2)nn1`, for which the pIC50 in the experiment on HL-60, in the experiment on SMMC-7721, in the experiment with A549, in the experiment on MCF7 and in the experiment with SW480 was less than 4.70 each time.

`C=C1C[C@]23C[C@@]1(O)CC[C@H]2c1cc(Br)c(O)c(C)c1[C@@H]3Cn1cc(-c2ccc(C)cc2)nn1`: the pIC50 in the experiment on HL-60, in the experiment on SMMC-7721, with A549, with MCF7 and in the experiment with SW480 was less than 4.70 throughout.

On to `Cc1ccc(S(=O)(=O)Oc2ccc3c(c2C)[C@H](Cn2cc(-c4ccc(C(F)(F)F)cc4)nn2)[C@@]24CC(=O)[C@@](C)(CC[C@@H]32)C4)cc1`, for which the pIC50 in the experiment on HL-60, with SMMC-7721, in the experiment on A549, in the experiment with MCF7 and with SW480 was less than 4.70 in each case.

For the molecule `C=C1C[C@]23C[C@@]1(O)CC[C@H]2c1cc(Br)c(O)c(C)c1[C@@H]3Cn1cc(-c2ccccn2)nn1`, the pIC50 with HL-60, in the experiment on SMMC-7721, in the experiment with A549, with MCF7 and in the experiment with SW480 was less than 4.70 in each case.

Consider `Cc1c(O)ccc2c1[C@H](Cn1cc(-c3ccc(F)cc3)nn1)[C@@]13CC(=O)[C@@](C)(CC[C@@H]21)C3`, for which the pIC50 in the experiment on HL-60, with SMMC-7721, with A549, with MCF7 and in the experiment on SW480 was less than 4.70 each time.

In the case of `Cc1ccc(S(=O)(=O)Oc2ccc3c(c2C)[C@H](Cn2cc(-c4ccc(F)cc4)nn2)[C@@]24CC(=O)[C@@](C)(CC[C@@H]32)C4)cc1`, the pIC50 in the experiment on HL-60, in the experiment with SMMC-7721, in the experiment on A549, with MCF7 and in the experiment on SW480 was less than 4.70 each time.

Turning to `C=C1C[C@]23C[C@@]1(O)CC[C@H]2c1ccc(OS(=O)(=O)c2ccc(C)cc2)c(C)c1[C@@H]3Cn1cc(-c2ccc(OC)cc2)nn1`, the pIC50 in the experiment with HL-60, with SMMC-7721, in the experiment on A549, with MCF7 and with SW480 was less than 4.70 each time.

With `Cc1c(O)ccc2c1[C@H](Cn1cc(-c3ccccc3)nn1)[C@@]13CC(=O)[C@@](C)(CC[C@@H]21)C3`, the pIC50 in the experiment with HL-60, with SMMC-7721, with A549, with MCF7 and in the experiment on SW480 was less than 4.70 throughout.

On to `C=C1C[C@]23C[C@@]1(O)CC[C@H]2c1ccc(O)c(C)c1[C@@H]3Cn1cc(-c2ccc(Br)cc2)nn1`, for which the pIC50 with HL-60, in the experiment on SMMC-7721, in the experiment on A549, in the experiment with MCF7 and in the experiment on SW480 was less than 4.70 in each case.

As for `C=C1C[C@]23C[C@@]1(O)CC[C@H]2c1ccc(O)c(C)c1[C@@H]3Cn1cc(-c2ccc(F)cc2)nn1`, the pIC50 in the experiment with HL-60, in the experiment with SMMC-7721, in the experiment on A549, with MCF7 and with SW480 was less than 4.70 throughout.

`C=C1C[C@]23C[C@@]1(O)CC[C@@H]2c1cccc(C)c1[C@@H]3Cn1cc(-c2ccc(Cl)cc2)nn1`: the pIC50 in the experiment on HL-60, in the experiment with SMMC-7721, in the experiment with A549, with MCF7 and with SW480 was less than 4.70 in each case.

Regarding `C=C1C[C@]23C[C@@]1(O)CC[C@H]2c1cc(Br)c(O)c(C)c1[C@@H]3Cn1cc(-c2ccc(OC)cc2)nn1`, the pIC50 with HL-60, in the experiment with SMMC-7721, in the experiment on A549, in the experiment on MCF7 and in the experiment on SW480 was less than 4.70 throughout.

On to `C=C1C[C@]23C[C@@]1(O)CC[C@H]2c1ccc(OS(=O)(=O)c2ccc(C)cc2)c(C)c1[C@@H]3Cn1cc(-c2ccccc2)nn1`, for which the pIC50 in the experiment on HL-60, in the experiment with SMMC-7721, with A549, in the experiment with MCF7 and with SW480 was less than 4.70 throughout.

Turning to `C=C1C[C@]23C[C@@]1(O)CC[C@@H]2c1cccc(C)c1[C@@H]3Cn1cc(-c2ccccc2)nn1`, the pIC50 in the experiment on HL-60, with SMMC-7721, with A549, in the experiment on MCF7 and in the experiment with SW480 was less than 4.70 throughout.
